Results reported in the supplement of paper PMC6045584.

Tests used:
Assay in all cases: area under dose-response curve of surviving fraction (unscaled, Aref=0) (surviving fraction x log10(nM)); higher = more resistant
Details in all cases: exposure time: 5 days; dose range 0.5-1000 nM
ERLOTINIB = compound: C#Cc1cccc(Nc2ncnc3cc(OCCOC)c(OCCOC)cc23)c1 [ERLOTINIB]
Outline: (§1)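 Tumour cell lines in 384-well plates were exposed for five days to eight inhibitor concentrations from 0.5 to 1000 nM. Viability was read by CellTiter-Glo luminescence, normalised to DMSO-only wells, in three screens per line. Dose-response survival curves were fitted to surviving fractions by 3-parameter logistic regression in the drc R package. Area under the curve is the unscaled activity area (Aref = 0) over log10 dose.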

SUNITINIB = compound: CCN(CC)CCNC(=O)c1c(C)[nH]c(/C=C2\C(=O)Nc3ccc(F)cc32)c1C [SUNITINIB]
Outline: as §1

METHOTREXATE = compound: CN(Cc1cnc2nc(N)nc(N)c2n1)c1ccc(C(=O)N[C@@H](CCC(=O)O)C(=O)O)cc1 [METHOTREXATE]
Outline: as §1

EVEROLIMUS = compound: CO[C@H]1C[C@@H]2CC[C@@H](C)[C@@](O)(O2)C(=O)C(=O)N2CCCC[C@H]2C(=O)O[C@H]([C@H](C)C[C@@H]2CC[C@@H](OCCO)[C@H](OC)C2)CC(=O)[C@H](C)/C=C(\C)[C@@H](O)[C@@H](OC)C(=O)[C@H](C)C[C@H](C)/C=C/C=C/C=C/1C [EVEROLIMUS]
Outline: as §1

AZD4547 = compound: COc1cc(CCc2cc(NC(=O)c3ccc(N4CC(C)NC(C)C4)cc3)n[nH]2)cc(OC)c1 [AZD4547]
Outline: as §1

ETOPOSIDE = compound: COc1cc([C@@H]2c3cc4c(cc3[C@@H](O[C@@H]3O[C@@H]5CO[C@@H](C)O[C@H]5[C@H](O)[C@H]3O)[C@H]3COC(=O)[C@H]23)OCO4)cc(OC)c1O [ETOPOSIDE]
Outline: as §1

[1] = compound: Cc1nc(Nc2n[nH]c3c2CN(C(=O)N[C@H](CN(C)C)c2ccccc2)C3(C)C)c2sccc2n1
Outline: as §1

MK2206 = compound: NC1(c2ccc(-c3nc4ccn5c(=O)[nH]nc5c4cc3-c3ccccc3)cc2)CCC1 [MK2206]
Outline: as §1

[2] = compound: O=C(NOCC1CC1)c1ccc(F)c(F)c1Nc1ccc(I)cc1Cl
Outline: as §1

| Test System | area under dose-response curve (ERLOTINIB) | area under dose-response curve (SUNITINIB) | area under dose-response curve (METHOTREXATE) | area under dose-response curve (EVEROLIMUS) | area under dose-response curve (AZD4547) | area under dose-response curve (ETOPOSIDE) | area under dose-response curve [1] | area under dose-response curve (MK2206) | area under dose-response curve [2] |
| --- | --- | --- | --- | --- | --- | --- | --- | --- | --- |
| HCC78 LUNG | 2.89 | 2.96 | 2.26 | 1.75 | 3.56 | 2.45 | 1.31 | 2.5 | 2.58 |
| PCI30 HEADNECK | 2.96 | 3.77 |  | 1.71 | 3.56 | 3.08 | 1.83 | 2.94 | 2.75 |
| JURKAT HAEMATOPOIETIC AND LYMPHOID TISSUE |  | 3.06 | 1.35 | 1.76 |  | 2.15 | 0.653 | 2.74 |  |
| SG43 HEADNECK | 2.23 | 3.53 | 2.93 | 3.01 | 2.62 | 2.8 |  | 2.3 | 2.18 |
| MG63 BONE |  | 2.72 | 2.15 | 2.17 | 2.57 | 3.13 | 1.34 | 3.13 | 3.12 |
| MDAMB468 BREAST | 3.23 | 3.17 | 2 | 1.93 | 3.6 | 3.72 | 0.925 | 3.04 | 3.21 |
| CADOES1 SOFT TISSUE | 2.74 | 3.22 | 1.82 | 1.49 | 3.23 | 3 | 2.56 | 2.82 | 2.87 |
| HT1080 SOFT TISSUE | 3.44 | 3.16 | 1.8 | 2.11 |  | 2.29 | 1.07 | 3.42 | 3.16 |
| SKBR3 BREAST | 3.55 | 2.46 | 2.7 | 1.31 | 3.75 | 3.1 | 1.62 | 2.48 |  |
| H23 LUNG | 2.52 | 2.86 | 1.75 | 1.76 | 3.37 | 3.08 | 1.47 | 3.04 | 2.08 |
| SJSA1 BONE |  | 3.16 | 5.58 | 5.2 | 3.5 | 3.13 | 1.92 | 3.03 | 3.08 |
| 22RV1 PROSTATE | 3.31 | 3.06 | 2.21 | 1.48 | 3.43 | 2.73 | 1.33 | 2.65 | 2.6 |
| HS578T BREAST |  |  | 2.46 | 1.77 | 3.18 | 2.59 | 1.45 | 2.94 | 3.18 |
| HOSMNG BONE | 3.19 | 3.15 | 1.71 | 3.27 | 3.3 |  | 2.58 | 2.72 | 3.32 |
| SIHA CERVIX |  | 3.13 | 2.99 | 2.23 | 3.02 |  | 1.55 | 3.01 | 2.76 |
| 143B BONE |  | 3.19 |  |  | 2.83 | 3.04 | 1.67 |  | 3.23 |
| CASKI CERVIX | 2.27 | 2.3 | 2.23 |  | 3.17 | 2.72 | 0.674 | 2.5 | 2.58 |

| Test System | area under dose-response curve (ERLOTINIB) | area under dose-response curve (SUNITINIB) | area under dose-response curve (METHOTREXATE) | area under dose-response curve (EVEROLIMUS) | area under dose-response curve (AZD4547) | area under dose-response curve (ETOPOSIDE) | area under dose-response curve [1] | area under dose-response curve (MK2206) | area under dose-response curve [2] |
| --- | --- | --- | --- | --- | --- | --- | --- | --- | --- |
| DU4475 BREAST | 3.44 | 2.1 | 3.28 | 0.518 | 3.5 | 1.65 | 0.457 | 2.76 | 1.65 |
| YAMATO SYNOVIAL | 4.34 | 1.58 | 2.44 | 2.2 |  |  | 2.79 | 2.75 | 3.26 |
| A549 LUNG | 3.49 | 3.13 | 2.14 | 2.81 | 3.33 |  | 1.86 | 3.54 | 3.13 |
| SUM149 BREAST | 2.76 | 2.12 | 2.98 | 1.67 |  | 2.41 | 1.13 | 3.19 | 2.25 |
| MCF7 BREAST | 3.32 | 2.56 | 2.23 | 1.74 | 3.09 | 2.83 | 2.09 | 2.79 | 2.83 |
| MDAMB361 BREAST | 2.9 | 2.37 | 2.76 | 2.12 | 3.18 | 3.08 | 2.83 | 2.39 | 3.27 |
| SG28 HEADNECK |  | 2.12 |  |  |  | 3.66 | 2.12 |  | 2.72 |
| SCC47 HEADNECK |  | 3.14 | 2.96 | 3.2 | 3.44 | 3.17 | 1.99 | 3.26 | 2.91 |
| SUM44 BREAST | 4.26 |  | 3.95 | 2.5 | 3.48 | 3.47 | 3.07 |  | 3.4 |
| CME SYNOVIAL |  | 2.09 | 2.37 |  |  | 2.46 | 3.07 | 4.03 | 3.27 |
| SG32 HEADNECK | 3.57 | 1.96 | 3.65 |  | 3.26 |  | 1.04 | 3.68 | 2.65 |
| HMLE3 BREAST |  | 2.08 | 2.58 | 2.01 | 2.25 | 2.53 | 0.944 | 2.97 | 2.57 |
| RDES SOFT TISSUE | 4.03 | 2.98 | 1.28 | 3.46 |  | 2.91 | 2.66 |  | 4.3 |
| HU09 BONE |  | 1.9 | 2.42 |  | 2.88 | 2.6 | 1.37 | 2.59 |  |
| NCIH441 LUNG |  | 3.25 |  |  |  | 2.86 | 1.92 | 3.53 | 2.98 |
| ZR751 BREAST |  | 3.62 | 2.86 | 1.57 | 3.05 |  | 1.83 | 1.96 | 2.56 |
| S68 BREAST |  | 2.58 | 3.64 | 1.39 | 3.45 | 2.65 | 1.4 | 2.5 | 2.84 |
